# Measurements taken from patent publication US9180118B2, “Thiadiazolidinone derivatives” (University of Rochester, priority 2006, dated 2015).
# Legend:
# Assay in all cases: Kinase assay (single point and titration)
# Format in all cases: biochemical
# PRKCI (PKC iota) = PRKCI (PKC iota) (Homo sapiens, UniProt P41743)
# Experimental: (§1) Kinase Assays: Single point and titration assays are performed using protocols (or essentially using protocols) know in the art for kinase activity profiling against a battery of kinase targets, including, for example, those specifically delineated herein. Such assays include, for example, those available from commercial sources, contract research laboratories, and the like.
# FLT3 = FLT3 (Homo sapiens, UniProt P36888)
# Experimental: as §1
# PRKCD (PKC delta) = PRKCD (PKC delta) (Homo sapiens, UniProt Q05655)
# Experimental: as §1
# [1] = titration, read-out: in vitro IC50
# Sequence of FLT3 (P36888 27-993): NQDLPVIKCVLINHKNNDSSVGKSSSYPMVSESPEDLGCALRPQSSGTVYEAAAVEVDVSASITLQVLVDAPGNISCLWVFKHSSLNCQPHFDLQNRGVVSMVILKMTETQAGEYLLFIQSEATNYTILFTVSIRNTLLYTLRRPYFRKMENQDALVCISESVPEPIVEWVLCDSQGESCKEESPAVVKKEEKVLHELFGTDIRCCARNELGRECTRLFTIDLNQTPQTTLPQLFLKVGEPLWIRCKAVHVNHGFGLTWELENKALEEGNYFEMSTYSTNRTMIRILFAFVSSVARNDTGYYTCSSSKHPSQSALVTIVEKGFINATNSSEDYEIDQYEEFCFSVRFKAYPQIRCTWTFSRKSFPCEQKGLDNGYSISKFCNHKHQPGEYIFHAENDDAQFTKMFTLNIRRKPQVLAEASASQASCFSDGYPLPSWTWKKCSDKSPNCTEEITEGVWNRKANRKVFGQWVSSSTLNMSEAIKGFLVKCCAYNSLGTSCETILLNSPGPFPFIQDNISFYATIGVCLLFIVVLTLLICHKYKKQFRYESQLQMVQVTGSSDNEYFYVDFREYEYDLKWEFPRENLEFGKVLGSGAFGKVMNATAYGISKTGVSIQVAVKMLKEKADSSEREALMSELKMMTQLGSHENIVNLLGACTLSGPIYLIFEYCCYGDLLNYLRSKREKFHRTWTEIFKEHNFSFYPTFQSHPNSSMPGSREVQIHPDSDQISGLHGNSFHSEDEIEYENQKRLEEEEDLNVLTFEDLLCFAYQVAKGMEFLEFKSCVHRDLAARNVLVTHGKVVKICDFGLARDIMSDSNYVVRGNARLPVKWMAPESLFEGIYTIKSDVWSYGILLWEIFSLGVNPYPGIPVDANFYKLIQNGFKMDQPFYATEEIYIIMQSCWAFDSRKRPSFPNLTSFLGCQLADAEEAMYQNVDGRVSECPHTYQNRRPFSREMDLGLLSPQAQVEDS
# Sequence of PRKCD (PKC delta) (Q05655 whole entry): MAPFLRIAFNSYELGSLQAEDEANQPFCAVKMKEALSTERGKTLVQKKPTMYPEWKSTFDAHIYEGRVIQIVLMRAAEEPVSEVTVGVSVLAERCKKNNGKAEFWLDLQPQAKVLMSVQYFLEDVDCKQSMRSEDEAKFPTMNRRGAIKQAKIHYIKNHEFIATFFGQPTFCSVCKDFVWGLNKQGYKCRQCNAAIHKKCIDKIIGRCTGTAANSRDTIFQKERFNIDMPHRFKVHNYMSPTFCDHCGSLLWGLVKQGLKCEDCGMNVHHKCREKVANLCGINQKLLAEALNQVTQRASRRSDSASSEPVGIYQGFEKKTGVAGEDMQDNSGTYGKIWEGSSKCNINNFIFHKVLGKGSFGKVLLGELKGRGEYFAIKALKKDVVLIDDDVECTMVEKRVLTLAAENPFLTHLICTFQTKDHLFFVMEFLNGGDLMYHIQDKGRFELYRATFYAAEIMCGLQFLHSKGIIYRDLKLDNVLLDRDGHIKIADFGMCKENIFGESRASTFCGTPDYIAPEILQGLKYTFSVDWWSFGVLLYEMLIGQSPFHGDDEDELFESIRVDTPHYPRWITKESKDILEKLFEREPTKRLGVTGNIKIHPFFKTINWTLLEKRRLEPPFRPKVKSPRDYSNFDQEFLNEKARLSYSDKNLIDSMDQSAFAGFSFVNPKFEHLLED
# Sequence of PRKCI (PKC iota) (P41743 whole entry): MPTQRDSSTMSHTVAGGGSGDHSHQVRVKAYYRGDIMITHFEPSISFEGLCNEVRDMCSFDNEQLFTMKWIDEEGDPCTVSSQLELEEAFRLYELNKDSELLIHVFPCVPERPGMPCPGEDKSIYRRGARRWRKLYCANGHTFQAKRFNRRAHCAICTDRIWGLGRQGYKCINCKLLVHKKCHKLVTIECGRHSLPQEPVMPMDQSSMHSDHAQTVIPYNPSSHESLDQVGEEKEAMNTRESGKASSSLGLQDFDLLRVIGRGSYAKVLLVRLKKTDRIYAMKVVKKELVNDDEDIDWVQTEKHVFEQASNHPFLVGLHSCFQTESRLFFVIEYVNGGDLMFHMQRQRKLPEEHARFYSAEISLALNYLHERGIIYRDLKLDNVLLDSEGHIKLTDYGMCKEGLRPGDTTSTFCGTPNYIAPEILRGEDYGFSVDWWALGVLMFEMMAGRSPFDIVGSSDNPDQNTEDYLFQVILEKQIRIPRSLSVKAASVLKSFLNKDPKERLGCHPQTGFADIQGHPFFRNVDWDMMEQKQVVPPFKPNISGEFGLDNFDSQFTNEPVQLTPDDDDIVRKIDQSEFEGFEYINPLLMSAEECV
smiles,measurement,setting,value
"Cn1sc(=O)n(Cc2ccccc2)c1=O [TDZD-8, 4-benzyl-2-methyl-1,2,4-thiadiazolidine-3,5-dione]",inhibition at 20 µM,PRKCI (PKC iota),100%
same,IC50,PRKCI (PKC iota); [1],5500 nM
same,inhibition at 20 µM,FLT3,99%
same,IC50,"FLT3; titration curve, FIG. 13C, read-out: in vitro IC50",673 nM
same,inhibition at 20 µM,PRKCD (PKC delta),102%
same,IC50,PRKCD (PKC delta); [1],1100 nM
